Measured values reported in BindingDB's records for doi:10.1021/jm00022a004 (H. Lundbeck, 1995).

Target: 5-hydroxytryptamine receptor 2A (Rattus norvegicus, UniProt P14842)
Experiment: Binding affinity for 5-hydroxytryptamine 2A receptor, activity is expressed as IC50 values.

Sequence of 5-hydroxytryptamine receptor 2A (P14842 whole entry): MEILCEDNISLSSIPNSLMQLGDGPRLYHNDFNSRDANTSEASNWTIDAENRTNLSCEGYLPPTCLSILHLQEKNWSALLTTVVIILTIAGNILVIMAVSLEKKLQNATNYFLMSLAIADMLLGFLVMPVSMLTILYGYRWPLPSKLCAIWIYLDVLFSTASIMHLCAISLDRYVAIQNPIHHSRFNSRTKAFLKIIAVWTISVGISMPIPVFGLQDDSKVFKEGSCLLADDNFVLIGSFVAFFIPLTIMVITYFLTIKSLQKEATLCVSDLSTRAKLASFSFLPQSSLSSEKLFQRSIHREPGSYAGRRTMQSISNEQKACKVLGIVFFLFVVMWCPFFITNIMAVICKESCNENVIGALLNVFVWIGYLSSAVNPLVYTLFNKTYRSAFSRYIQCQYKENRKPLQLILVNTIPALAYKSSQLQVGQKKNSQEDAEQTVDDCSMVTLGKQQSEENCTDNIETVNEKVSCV

**Q.** How did the IC50 turn out when `CC1(C)CN(C2CC(c3ccc(F)cc3)c3ccc(Cl)cc32)CCN1` (stereo unspecified) [1-[6-Chloro-3-(4-fluoro-phenyl)-indan-1-yl]-3,3-dimethyl-piperazine] was run?
**A.** The IC50 was 3.2 nM.
